Source: patent publication US20090253650A1, “Teat antiseptic prepared from polysaccharide gel with bactericidal and immuno-stimulating activity isolated from durian fruit-rind” (priority 2008, published 2009)

Tested on: peritoneal leukocyte
Experiment: Peritoneal leukocyte count in mice after intraperitoneal injection
Assay type: in vivo
Details: 3% thioglycollate (positive control)

Question: thioglycollate was tested. Which “Number of Lymphocyte (mean ± S.E.)” value did it give?
Answer: 0.86 ± 0.14 ×10^6 cell/ml
